From patent US9303016B2, “Derivatives of aza adamantane and uses thereof” (CONNEXIOS LIFE SCIENCES PVT. LTD., priority 2011, dated 2016)

Target: T1, human full length HSD11β1 (Homo sapiens, UniProt P28845)
T1 construct: transient expression of human full length HSD11β1 expression vector; host or cells: CHO cells, transient transfection
Assay: In Vitro HSD11β1 Inhibition Assay
Assay type: cell-based
Settings: CHO cells transiently expressing human HSD11β1; 200 nM cortisone+500 uM NADPH overnight; cortisone to cortisol by LC/MS-MS; read-out: 11βHSD1 (IC50)
How it was run: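 Whole-cell assay in CHO cells transiently transfected with full-length human HSD11β1, re-seeded 24 h after transfection. Cells incubated overnight with 200 nM cortisone plus 500 uM NADPH, with or without inhibitor. Cortisone-to-cortisol conversion measured by LC/MS-MS; IC50 (nM) from an 8-point log concentration-inhibition curve.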

T1 sequence (P28845 whole entry): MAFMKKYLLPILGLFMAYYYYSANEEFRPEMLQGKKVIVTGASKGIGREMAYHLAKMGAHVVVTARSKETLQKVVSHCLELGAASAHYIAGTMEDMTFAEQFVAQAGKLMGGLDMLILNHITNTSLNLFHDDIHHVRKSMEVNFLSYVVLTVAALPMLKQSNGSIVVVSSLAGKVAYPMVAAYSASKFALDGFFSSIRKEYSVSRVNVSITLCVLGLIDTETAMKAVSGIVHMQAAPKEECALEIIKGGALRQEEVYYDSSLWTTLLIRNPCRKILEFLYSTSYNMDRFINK

Structure (SMILES)	IC50
CC(C)Oc1cccc2[nH]cc(C(C)CC(=O)N3C4CC5CC3CC(F)(C5)C4)c12 (single isomer, unassigned) [Compound 185, 1-(5-fluoro-2-azatricyclo[3.3.1.1^3,7]dec-2-yl)-3-[4-(propan-2-yloxy)-1H-indol-3-yl]butan-1-one]	> 250 nM
CC(CC(=O)N1C2CC3CC1CC(O)(C3)C2)c1nc2ccccc2s1 (single isomer, unassigned) [Compound 115, 3-(1,3-benzothiazol-2-yl)-1-(5-hydroxy-2-azatricyclo[3.3.1.1^3,7]dec-2-yl)butan-1-one]	200 to 250 nM
CC(CC(=O)N1C2CC3CC1CC(O)(C3)C2)c1c[nH]c2cccc(C3CC3)c12 (single isomer, unassigned) [Compound 103, 3-(4-cyclopropyl-1H-indol-3-yl)-1-(5-hydroxy-2-azatricyclo[3.3.1.1^3,7]dec-2-yl)butan-1-one]	> 250 nM
CC(CC(=O)N1C2CC3CC1CC(O)(C3)C2)c1c[nH]c2ccccc12 (single isomer, unassigned) [Example 21, 1-(5-hydroxy-2-azatricyclo[3.3.1.1^3,7]dec-2-yl)-3-(1H-indol-3-yl)butan-1-one]	> 250 nM
O=C(CC(c1ccc(F)cc1)c1c[nH]c2ccccc12)N1C2CC3CC1CC(O)(C3)C2 (single isomer, unassigned) [Compound 81, 3-(4-fluorophenyl)-1-(5-hydroxy-2-azatricyclo[3.3.1.1^3,7]dec-2-yl)-3-(1H-indol-3-yl)propan-1-one]	> 250 nM
O=C(CCc1c[nH]c2ccc(F)cc12)N1C2CC3CC(C2)CC1C3 [Example 7, 1-(2-azatricyclo[3.3.1.1^3,7]dec-2-yl)-3-(5-fluoro-1H-indol-3-yl)propan-1-one]	> 250 nM
Cc1cccc2[nH]cc(CCC(=O)N3C4CC5CC3CC(O)(C5)C4)c12 [Compound 116, 1-(5-hydroxy-2-azatricyclo[3.3.1.1^3,7]dec-2-yl)-3-(4-methyl-1H-indol-3-yl)propan-1-one]	200 to 250 nM
CC(CC(=O)N1C2CC3CC1CC(O)(C3)C2)c1c[nH]c2cc(F)ccc12 (single isomer, unassigned) [Compound 97, 3-(6-fluoro-1H-indol-3-yl)-1-(5-hydroxy-2-azatricyclo[3.3.1.1^3,7]dec-2-yl)butan-1-one]	> 250 nM
Cc1ccc2[nH]cc(C(C)CC(=O)N3C4CC5CC3CC(O)(C5)C4)c2c1C1CC1 (stereo not drawn) [Compound 160, 3-(4-cyclopropyl-5-methyl-1H-indol-3-yl)-1-(5-hydroxy-2-azatricyclo[3.3.1.1^3,7]dec-2-yl)butan-1-one]	100 to 150 nM
CC(CC(=O)N1C2CC3CC1CC(O)(C3)C2)c1c[nH]c2ncc(Cl)c(C3CC3)c12 (stereo not drawn) [Compound 198, 3-(5-chloro-4-cyclopropyl-1H-pyrrolo[2,3-b]pyridin-3-yl)-1-(5-hydroxy-2-azatricyclo[3.3.1.1^3,7]dec-2-yl)butan-1-one]	< 100 nM
COc1c(C)ccc2[nH]cc(C(C)CC(=O)N3C4CC5CC3CC(O)(C5)C4)c12 (stereo not drawn) [Compound 209, 1-(5-hydroxy-2-azatricyclo[3.3.1.1^3,7]dec-2-yl)-3-(4-methoxy-5-methyl-1H-indol-3-yl)butan-1-one]	200 to 250 nM
CC(CC(=O)N1C2CC3CC1CC(O)(C3)C2)c1c[nH]c2cccc(Cl)c12 (single isomer, unassigned) [Example 37, 3-(4-chloro-1H-indol-3-yl)-1-(5-hydroxy-2-azatricyclo[3.3.1.1^3,7]dec-2-yl)butan-1-one]	< 100 nM
CC(CC(=O)N1C2CC3CC1CC(C#N)(C3)C2)c1nc2ccccc2s1 (stereo not drawn) [Compound 118, 2-[3-(1,3-benzothiazol-2-yl)butanoyl]-2-azatricyclo[3.3.1.1^3,7]decane-5-carbonitrile]	> 250 nM
O=C(CC(c1ccccc1)c1nc2ccccc2s1)N1C2CC3CC1CC(F)(C3)C2 (stereo not drawn) [Compound 108, 3-(1,3-benzothiazol-2-yl)-1-(5-fluoro-2-azatricyclo[3.3.1.1^3,7]dec-2-yl)-3-phenylpropan-1-one]	> 250 nM
CC(CC(=O)N1C2CC3CC1CC(O)(C3)C2)c1c[nH]c2ncc(Cl)cc12 (stereo not drawn) [Compound 135, 3-(5-chloro-1H-pyrrolo[2,3-b]pyridin-3-yl)-1-(5-hydroxy-2-azatricyclo[3.3.1.1^3,7]dec-2-yl)butan-1-one]	> 250 nM
Cc1cccc2[nH]cc(C(CC(=O)N3C4CC5CC3CC(O)(C5)C4)C(C)C)c12 (stereo not drawn) [Compound 74, 1-(5-hydroxy-2-azatricyclo[3.3.1.1^7]dec-2-yl)-4-methyl-3-(4-methyl-1H-indol-3-yl)pentan-1-one]	> 250 nM
CC(CC(=O)N1C2CC3CC1CC(O)(C3)C2)c1cn(CCO)c2cccc(C3CC3)c12 (stereo not drawn) [Compound 80, 3-[4-cyclopropyl-1-(2-hydroxyethyl)-1H-indol-3-yl]-1-(5-hydroxy-2-azatricyclo[3.3.1.1^3,7]dec-2-yl)butan-1-one]	> 250 nM
CC(CC(=O)N1C2CC3CC1CC(C(N)=O)(C3)C2)c1c[nH]c2cccc(C3CC3)c12 (stereo not drawn) [Example 56, 2-[3-(4-cyclopropyl-1H-indol-3-yl)butanoyl]-2-azatricyclo[3.3.1.1^3,7]decane-5-carboxamide]	< 100 nM

Structure (SMILES)	IC50
CC(CC(=O)N1C2CC3CC(C2)CC1C3)c1c[nH]c2ccc(OS(C)(=O)=O)cc12 (stereo not drawn) [Compound 229, 3-(4-(2-azaadamantan-2-yl)-4-oxobutan-2-yl)-1H-indol-5-yl methanesulfonate]	> 250 nM
COc1ccc2[nH]cc(C(C)CC(=O)N3C4CC5CC3CC(O)(C5)C4)c2c1C (stereo not drawn) [Compound 165, 1-(5-hydroxy-2-azatricyclo[3.3.1.1^3,7]dec-2-yl)-3-(5-methoxy-4-methyl-1H-indol-3-yl)butan-1-one]	> 250 nM
O=C(CC(c1ccccc1)c1c[nH]c2cccc(F)c12)N1C2CC3CC1CC(C(=O)O)(C3)C2 (stereo not drawn) [Compound 111, 2-[3-(4-fluoro-1H-indol-3-yl)-3-phenylpropanoyl]-2-azatricyclo[3.3.1.1^3,7]decane-5-carboxylic acid]	> 250 nM
CC(CC(=O)N1C2CC3CC1CC(O)(C3)C2)c1c[nH]c2cccc(Oc3ccc(Cl)cc3)c12 (stereo not drawn) [Example 44, 3-[4-(4-chlorophenoxy)-1H-indol-3-yl]-1-(5-hydroxy-2-azatricyclo[3.3.1.1^3,7]dec-2-yl)butan-1-one]	200 to 250 nM
CC(CC(=O)N1C2CC3(O)CC1CC(F)(C2)C3)c1c[nH]c2cccc(C3CC3)c12 (stereo not drawn) [Compound 213, 3-(4-cyclopropyl-1H-indol-3-yl)-1-(5-fluoro-7-hydroxy-2-azatricyclo[3.3.1.1^3,7]dec-2-yl)butan-1-one]	100 to 150 nM
CC(CC(=O)N1C2CC3CC1CC(C(=O)O)(C3)C2)c1c[nH]c2ncccc12 (stereo not drawn) [Compound 91, 2-[3-(1H-pyrrolo[2,3-b]pyridin-3-yl)butanoyl]-2-azatricyclo[3.3.1.1^3,7]decane-5-carboxylic acid]	> 250 nM
CC(C)Oc1cccc2[nH]cc(C(C)CC(=O)N3C4CC5CC3CC(F)(C5)C4)c12 (single isomer, unassigned) [Compound 184, 1-(5-fluoro-2-azatricyclo[3.3.1.1^3,7]dec-2-yl)-3-[4-(propan-2-yloxy)-1H-indol-3-yl]butan-1-one]	< 100 nM
O=C(CC(c1ccccc1)c1nc2ccccc2s1)N1C2CC3CC1CC(O)(C3)C2 (stereo not drawn) [Compound 107, 3-(1,3-benzothiazol-2-yl)-1-(5-hydroxy-2-azatricyclo[3.3.1.1^3,7]dec-2-yl)-3-phenylpropan-1-one]	> 250 nM
CCC(CC(=O)N1C2CC3CC1CC(O)(C3)C2)c1c[nH]c2ccccc12 (stereo not drawn) [Example 64, 1-(5-hydroxy-2-azatricyclo[3.3.1.1^3,7]dec-2-yl)-3-(1H-indol-3-yl)pentan-1-one]	100 to 150 nM
Cc1ccc2[nH]cc(C(C)CC(=O)N3C4CC5CC3CC(O)(C5)C4)c2c1Cl (single isomer, unassigned) [Compound 175, 3-(4-chloro-5-methyl-1H-indol-3-yl)-1-(5-hydroxy-2-azatricyclo[3.3.1.1^3,7]dec-2-yl)butan-1-one]	< 100 nM
COC12CC3CC(C1)N(C(=O)CC(C)c1c[nH]c4ccccc14)C(C3)C2 (stereo not drawn) [Example 34, 3-(1H-indol-3-yl)-1-(5-methoxy-2-azatricyclo[3.3.1.1^3,7]dec-2-yl)butan-1-one]	> 250 nM
CC(CC(=O)N1C2CC3CC1CC(O)(C3)C2)c1c[nH]c2cccc(C3CC3)c12 (stereo not drawn) [Example 41]	< 100 nM
CC(CC(=O)N1C2CC3CC1CC(C#N)(C3)C2)c1c[nH]c2ccccc12 (stereo not drawn) [Example 65]	200 to 250 nM
CC(CC(=O)N1C2CC3CC1CC(C#N)(C3)C2)c1c[nH]c2cccc(Cl)c12 (stereo not drawn) [Example 59, 2-[3-(4-chloro-1H-indol-3-yl)butanoyl]-2-azatricyclo[3.3.1.1^3,7]decane-5-carbonitrile]	100 to 150 nM
CC(CC(=O)N1C2CC3CC1CC(C(=O)O)(C3)C2)c1c[nH]c2cccc(Cl)c12 (stereo not drawn) [Example 43, 2-[3-(4-chloro-1H-indol-3-yl)butanoyl]-2-azatricyclo[3.3.1.1^3,7]decane-carboxylic acid]	> 250 nM
Cc1[nH]c2cccc(Cl)c2c1C(C)CC(=O)N1C2CC3CC1CC(O)(C3)C2 (stereo not drawn) [Example 60, 3-(4-chloro-2-methyl-1H-indol-3-yl)-1-(5-hydroxy-2-azatricyclo[3.3.1.1^3,7]dec-2-yl)butan-1-one]	> 250 nM
CC(CC(=O)N1C2CC3CC1CC(O)(C3)C2)c1c[nH]c2cc(Cl)ccc12 (stereo not drawn) [Example 69, 3-(6-chloro-1H-indol-3-yl)-1-(5-hydroxy-2-azatricyclo[3.3.1.1^3,7]dec-2-yl)butan-1-one]	100 to 150 nM
CC(CC(=O)N1C2CC3CC1CC(O)(C3)C2)c1nc2cc(Cl)ccc2s1 (stereo not drawn) [Compound 190, 3-(5-chloro-1,3-benzothiazol-2-yl)-1-(5-hydroxy-2-azatricyclo[3.3.1.1^3,7]dec-2-yl)butan-1-one]	150 to 200 nM
